This note sets out measurements from US8802711B2, “TRPV1 antagonists” (AbbVie Inc., priority 2011, dated 2014).

Assay [1] relates to Sprague-Dawley rats. Kind of assay: Rat tail immersion assay (noxious thermosensation). It counts as in vivo. Conditions: for change in vivo at 100 µmol/kg: 1 h; for change in vivo at 100 µmol/kg / % Increase in tail withdrawal latency: rat, 100 μmol/kg oral, one hour post dosing, 55° C. water bath, relative to vehicle. As to the method:
(§1) Adult male Sprague-Dawley rats (250-300 g body weight, Charles River Laboratories, Portage, Mich.) were used. Animal handling and experimental protocols were approved by the Institutional Animal Care and Use Committee (IACUC) at Abbott Laboratories. For all surgical procedures, animals were maintained under isoflurane anesthesia (4-5% to induce, 1-3% to maintain), and the incision sites were sterilized using a 10% povidone-iodine solution prior to and after surgeries.
Compounds were tested for their effects on noxious thermosensation using the tail immersion assay. Testing was performed one hour following oral administration of 100 μmol/kg of the compound in 10% ethanol/20% Tween-80/70% PEG-400 (2 mL/kg). Morphine (6 mg/kg) was administered interperitoneally (i.p.) using saline (2 mL/kg) as the vehicle. For testing, a circulating water bath was heated to 55° C. Thirty to sixty minutes post dosing, the rats were handled for a few seconds to calm them down and then cupped with their back against the tester's hand at a slight angle with head facing away from the tester. With rat in one hand and a 0.01 second stopwatch in the other hand, the tail was quickly immersed 6-8 cm in the water bath or to a distance leaving 2-3 cm of tail out of water. The timer was started simultaneously. When the rat flinched or attempted withdrawal, timer was immediately stopped and the rat's tail was quickly removed from water bath. This response latency (in seconds) was recorded. Process was repeated 3 times with 3-4 minutes between readings and the average response latency was calculated.
For a given example, a percent increase in the average response latency (in seconds) for tail withdrawal relative to a vehicle control was determined. % increase=[(tc−tv)/tv]×100%
tc=response latency (in seconds) with oral dosing of compounds
tv=response latency (in seconds) with oral dosing of vehicle
The % increases in tail withdrawal latency relative to vehicle control are divided into the following categories: […]

The target in assay [2] is T1, human TRPV1 receptor (hTRPV1) (Homo sapiens (Human), UniProt Q8NER1). The assay can be described thus: Capsaicin activation assay (FLIPR intracellular Ca2+). It counts as cell-based. The settings on record: inhibition of capsaicin-induced intracellular Ca2+ increase, read-out: hTRPV1 cap IC50. The method, boiled down:
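Antagonism measured as [Ca2+]i fluorescence on FLIPR Tetra: compounds given 3 min ahead of capsaicin, added as 200 nM (4×), to dye-loaded hTRPV1-HEK293 cells. Response taken as baseline-subtracted peak, normalized to the 50 nM capsaicin control; 12-point one-third-log titrations.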

In assay [3] the target is T1, human TRPV1 receptor (hTRPV1). The assay can be described thus: Acid activation assay (pH 5.0, FLIPR intracellular Ca2+). It is filed as cell-based. Conditions: 37.5 μM antagonist, percentage of the maximal pH 5.0-induced response remaining; for remaining activity at 37.5 µM: read-out: hTRPV1 H+ (max % remain). The method, boiled down:
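Antagonism of acid-evoked Ca2+ influx measured by FLIPR Calcium-4 fluorescence after a pH 5.0 DPBS/MES stimulus, with compounds preincubated 3 min over 12 half-log concentrations. Cells: stable hTRPV1-expressing 1321N1 line, dye-loaded 90–120 min in the dark at 25 °C.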

Assay [4] has as its system Sprague-Dawley rats. The assay can be described thus: Rat acute capsaicin-induced flinching behavior. It is filed as in vivo. The settings on record: 100 μmol/kg p.o., percent reduction in number of flinching behaviors.
Source text: as §1
Rats were placed in individual observation cages. […] One hour after administration of the test compound, 2.5 μg of capsaicin in a 10 μL solution of 10% ethanol/90% hydroxypropyl-β-cyclodextrin was injected subcutaneously into the dorsal aspect of the right hind paw. The observation cage was then suspended above mirrors in order to facilitate observation. […] The number of flinching behaviors of the injured paw was recorded during the five minute observation period (Gilchrist, H. D.; Allard, B. L.; Simone, D. A.; Enhanced withdrawal responses to heat and mechanical stimuli following intraplantar injection of capsaicin in rats. Pain, 1996, 67, 179-188). The percent reduction in the number of flinching behaviors produced with oral administration of representative compounds of the present invention relative to control-treated animals (% effect) is reported in Table 3.

Assay [5] has as its system Sprague-Dawley rats. The assay can be described thus: Sodium iodoacetate-induced knee joint osteoarthritic pain model. Conditions: 10 mg/kg p.o., 1 hour after dosing, % return to normalcy of hind limb grip force. It counts as in vivo, rat.
Source text: as §1
Unilateral knee joint osteoarthritis was induced in the rats by a single intra-articular (i.a.) injection of sodium iodoacetate (3 mg in 0.05 mL sterile isotonic saline) into the right knee joint cavity under light isoflurane anesthesia using a 26 G needle. […] Pain behavioral assessment of hind limb grip force was conducted by recording the maximum compressive force exerted on the hind limb strain gauge setup, in a commercially available grip force measurement system (Columbus Instruments, Columbus, Ohio), to elicit paw withdrawal. The grip force data was converted to a maximum hindlimb cumulative compressive force (CFmax) (gram force)/kg body weight for each animal. The analgesic effects of test compounds were determined 20 days following the i.a. injection of sodium iodoacetate. The vehicle control group for each compound being tested was assigned 0% whereas the age matched naïve group was assigned as being 100% (normal). The % effect for each dose group was then expressed as % return to normalcy compared to the naïve group. Test compounds were administered orally in 10% ethanol/20% Tween 80/70% polyethylene glycol-400 vehicle at a volume of 2 mL/kg. The assessment of the analgesic effects of test compounds was made 1 hour following oral administration. The assessment of the analgesic effects of test compounds can be made following a single dose or following repeated administration wherein the frequency of dosing is 1 to 2 times daily. The duration of such repeated daily dosing may last for any time greater than one day. A typical duration of repeated daily dosing is about 5 days to about 12 days.

Setting [6] is: Table 1, HEK293 cells expressing human TRPV1.
[7] abbreviates: read-out: % Increase in tail withdrawal latency.

Where two headings read alike, the source gives them in different places.

T1 sequence (Q8NER1 whole entry): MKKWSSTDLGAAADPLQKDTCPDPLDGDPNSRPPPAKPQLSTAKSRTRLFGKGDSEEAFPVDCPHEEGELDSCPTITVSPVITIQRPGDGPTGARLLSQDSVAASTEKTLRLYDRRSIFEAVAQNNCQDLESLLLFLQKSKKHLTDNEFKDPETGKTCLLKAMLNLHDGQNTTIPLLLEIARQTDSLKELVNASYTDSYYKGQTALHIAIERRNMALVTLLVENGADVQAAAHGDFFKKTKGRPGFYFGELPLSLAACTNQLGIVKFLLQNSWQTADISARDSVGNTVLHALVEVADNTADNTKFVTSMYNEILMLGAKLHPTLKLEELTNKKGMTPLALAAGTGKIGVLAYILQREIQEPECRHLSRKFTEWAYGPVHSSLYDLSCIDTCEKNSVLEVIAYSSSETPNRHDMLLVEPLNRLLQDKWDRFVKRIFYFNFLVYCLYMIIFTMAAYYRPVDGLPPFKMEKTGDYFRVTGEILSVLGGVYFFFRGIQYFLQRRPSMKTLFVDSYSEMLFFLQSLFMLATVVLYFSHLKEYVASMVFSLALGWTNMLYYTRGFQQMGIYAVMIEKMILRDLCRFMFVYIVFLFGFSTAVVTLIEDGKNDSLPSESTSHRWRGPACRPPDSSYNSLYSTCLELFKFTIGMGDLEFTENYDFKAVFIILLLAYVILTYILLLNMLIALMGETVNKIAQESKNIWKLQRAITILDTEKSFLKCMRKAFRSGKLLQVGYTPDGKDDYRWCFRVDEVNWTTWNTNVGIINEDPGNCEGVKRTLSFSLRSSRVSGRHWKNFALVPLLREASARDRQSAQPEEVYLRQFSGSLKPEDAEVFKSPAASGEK

Turning to `CN1CC[C@]23c4c5ccc(O)c4O[C@H]2[C@@H](O)C=C[C@H]3[C@H]1C5` [Morphine, reference compound], the change in vivo at 6 mg/kg in the assay with Sprague-Dawley rats [1] (Rattus norvegicus, ip, read-out: % Increase in tail withdrawal latency) was greater than 25%.
`CN1C(=O)CCc2c(NC(=O)N[C@H]3CC[C@H](c4ccccc4)C3)cccc21` [Example 96, 1-(1-methyl-2-oxo-1,2,3,4-tetrahydroquinolin-5-yl)-3-[(1S,3S)-3-phenylcyclopentyl]urea]: the IC50 in assay [2] (setting [6]) and in assay [2] (Table 2) was 63 nM in each case. For the same compound, the remaining activity at 37.5 µM in assay [3] (Table 1) and in assay [3] (Table 2) was 66% throughout. The change in vivo at 100 µmol/kg with Sprague-Dawley rats [1] (setting [7]) lay within 10 to 25%.
Regarding `Cc1cc2c(NC(=O)N[C@H]3CC[C@@H](c4ccccc4)C3)c(F)ccc2cn1` [Example 27, 1-(6-fluoro-3-methylisoquinolin-5-yl)-3-[(1S,3R)-3-phenylcyclopentyl]urea], the IC50 (commonly the midpoint of a concentration-inhibition curve) in assay [2] (setting [6]) was determined as 7 nM; in assay [2] (Table 2), 6 nM. Further, the remaining activity at 37.5 µM in assay [3] (Table 1) and in assay [3] (Table 2) was 60% each time. Also, the “% Increase in tail withdrawal latency” value in the assay with Sprague-Dawley rats [1] was “−”.
As for `O=C(Nc1cccc2[nH]ncc12)N[C@@H]1C=C[C@H](c2ccccc2)C1` [Example 48, 1-(1H-indazol-4-yl)-3-[(1S,4R)-4-phenylcyclopent-2-en-1-yl]urea], the IC50 in assay [2] (setting [6]) and in assay [2] (Table 2) was 42 nM each time. For the same compound, the remaining activity at 37.5 µM in assay [3] (Table 1) and in assay [3] (Table 2) was 49% each time. Also, the “% Increase in tail withdrawal latency” value in the assay with Sprague-Dawley rats [1] is given as “−”.
For `Cn1c(=O)ccc2c(NC(=O)N[C@@H]3CC[C@H](c4ccccc4)C3)cccc21` [Example 51, 1-(1-methyl-2-oxo-1,2-dihydroquinolin-5-yl)-3-((1R,3S)-3-phenylcyclopentyl)urea], the 50% inhibitory concentration (IC50) in assay [2] (setting [6]) and in assay [2] (Table 2) was 13 nM throughout. Further, the remaining activity at 37.5 µM in assay [3] (Table 1) and in assay [3] (Table 2) was 56% throughout. Further, in the assay with Sprague-Dawley rats [1], the “% Increase in tail withdrawal latency” value was “−”. Further, the “% effect” value in the assay on Sprague-Dawley rats [4] is recorded as 30%.
Consider `CC(C)(C)c1ccc2c(c1)CC[C@H]2NC(=O)Nc1cccc2[nH]ncc12` [J, reference compound], for which, in assay [3] (Table 2), the remaining activity at 37.5 µM was determined as 1%. In addition, in the assay with Sprague-Dawley rats [1] (setting [7]), the change in vivo at 100 µmol/kg was greater than 25%.
`O=C(Nc1cccc2[nH]ncc12)N[C@@H]1CC[C@@H](c2ccccc2F)C1` [Example 66, 1-[(1R,3R)-3-(2-fluorophenyl)cyclopentyl]-3-(1H-indazol-4-yl)urea]: the results for the half-inhibitory concentration (IC50) in assay [2] (setting [6]) and in assay [2] (Table 2) were 8.2 nM and 8 nM, respectively. The remaining activity at 37.5 µM in assay [3] (Table 1) and in assay [3] (Table 2) was 29% each time. The change in vivo at 100 µmol/kg with Sprague-Dawley rats [1] (setting [7]) was greater than 25%.
On to `Cc1cc2c(NC(=O)N[C@@H]3CC[C@@H](c4ccccc4)C3)c(F)ccc2cn1` [Example 20, 1-(6-fluoro-3-methylisoquinolin-5-yl)-3-[(1R,3R)-3-phenylcyclopentyl]urea], for which the 50% inhibitory concentration (IC50) in assay [2] (setting [6]) and in assay [2] (Table 2) was 5 nM in each case. For the same compound, the remaining activity at 37.5 µM in assay [3] (Table 1) and in assay [3] (Table 2) was 32% each time. In addition, in the assay with Sprague-Dawley rats [1], the “% Increase in tail withdrawal latency” value is reported as “−”.
Take `Cn1c(=O)ccc2c(NC(=O)N[C@@H]3CC[C@@H](c4cccc(F)c4)C3)cccc21` [Example 78, 1-[(1R,3R)-3-(3-fluorophenyl)cyclopentyl]-3-(1-methyl-2-oxo-1,2-dihydroquinolin-5-yl)urea]: the 50% inhibitory concentration (IC50) in assay [2] (setting [6]) worked out at 6.5 nM; in assay [2] (Table 2) it was 7 nM. Also, the remaining activity at 37.5 µM in assay [3] (Table 1) and in assay [3] (Table 2) was 78% in each case. Besides, the change in vivo at 100 µmol/kg in the assay with Sprague-Dawley rats [1] (setting [7]) fell in the range of 10 to 25%.
Take `O=C(Nc1cccc2[nH]ncc12)N[C@H]1CC[C@H](c2cccc(F)c2)C1` [Example 64, 1-[(1S,3S)-3-(3-fluorophenyl)cyclopentyl]-3-(1H-indazol-4-yl)urea]: in assay [2] (setting [6]), the IC50 was 29 nM. The remaining activity at 37.5 µM in assay [3] (Table 1) came out at 25%. Further, in the assay on Sprague-Dawley rats [5], the “% effect” value amounted to 48%.
Consider `Cc1cccnc1N1CC=C(C(=O)Nc2ccc(S(=O)(=O)C(F)(F)F)cc2)CC1` [L, reference compound], for which the remaining activity at 37.5 µM in assay [3] (Table 2) is 2%. In the assay with Sprague-Dawley rats [1] (setting [7]), the change in vivo at 100 µmol/kg was greater than 25%.
As to `O=C(Nc1cccc2[nH]ncc12)N[C@@H]1CC[C@H](c2ccccc2F)C1` [Example 61, 1-[(1R,3S)-3-(2-fluorophenyl)cyclopentyl]-3-(1H-indazol-4-yl)urea], the IC50 in assay [2] (setting [6]) was determined as 32 nM. Also, the remaining activity at 37.5 µM in assay [3] (Table 1) was 44%. The “% effect” value in the assay on Sprague-Dawley rats [5] came to 34%.
In the case of `CC(=O)Nc1nc2c(Oc3cc(-c4ccc(C(F)(F)F)cc4)ncn3)cccc2s1` [H, reference compound], the “hTRPV1 H+ (max % remain)” value in assay [3] (Table 2) was 10%. Moreover, in the assay on Sprague-Dawley rats [1] (setting [7]), the change in vivo at 100 µmol/kg is greater than 25%.
For `O=C(Nc1cccc2[nH]ncc12)N[C@@H]1CC[C@H](c2ccccc2)C1` [Example 7, 1-(1H-indazol-4-yl)-3-[(1R,3S)-3-phenylcyclopentyl]urea], the IC50 in assay [2] (setting [6]) and in assay [2] (Table 2) was 9 nM throughout. The remaining activity at 37.5 µM in assay [3] (Table 1) and in assay [3] (Table 2) was 32% in each case. Moreover, the “% Increase in tail withdrawal latency” value with Sprague-Dawley rats [1] is reported as “−”.
For the compound `CC(C)(C)c1ccc(Nc2ncnc3cc(-c4ncccc4C(F)(F)F)ccc23)cc1` [I, reference compound], in assay [3] (Table 2), the remaining activity at 37.5 µM amounted to 1%. In addition, in the assay on Sprague-Dawley rats [1] (setting [7]), the change in vivo at 100 µmol/kg is greater than 25%.
As for `O=C(Nc1cccc2c1C[C@@H](O)C2)N[C@@H]1CC[C@H](c2ccccc2)C1` [Example 2, 1-[(2S)-2-hydroxy-2,3-dihydro-1H-inden-4-yl]-3-[(1R,3S)-3-phenylcyclopentyl]urea], the IC50 in assay [2] (setting [6]) and in assay [2] (Table 2) was 29 nM throughout. Moreover, the remaining activity at 37.5 µM in assay [3] (Table 1) and in assay [3] (Table 2) was 40% throughout. Besides, the “% Increase in tail withdrawal latency” value with Sprague-Dawley rats [1] is “−”.
Turning to `Cc1nc(Nc2cccc3c2C[C@H](O)CC3)oc1-c1ccc(C(F)(F)F)cc1` [K, reference compound], the remaining activity at 37.5 µM in assay [3] (Table 2) is 3%. Also, the change in vivo at 100 µmol/kg in the assay with Sprague-Dawley rats [1] (setting [7]) is greater than 25%.
